Experimental data taken from US3993771A (priority 1974, dated 1976).
≈ marks a conversion by molar mass, not a printed value. Where two headings read alike, the source gives them in different places.

What was measured:
[1] = system: Pyricularia oryzae; assay: microbe, parasite or virus in culture; type: cell-based; settings: for Diameter of mycelium (symbol) / Diameter of mycelium: 27° C., 2 weeks; for Diameter of mycelium: untreated 63.5 m/m; for MIC: Pyricularia oryzae, 336 h, read-out: MIC (minimum inhibitory concentration on mycelial growth)
[2] = system: Pyricularia oryzae; type: in vivo
[3] = system: Pyricularia oryzae; type: in vivo; settings: preventive
[4] = system: rice plants (var.: Kinki No. 33); settings: preventive test
[5] = system: rice plants (var.: Kinki No. 33)
[6] = curative, concentration of active ingredient 200 ppm
[7] = concentration of active ingredient 100 ppm
[8] = concentration of active ingredient 500 ppm
[9] = curative, concentration of active ingredient 500 ppm
[10] = curative, concentration of active ingredient 20 ppm

| SMILES | Diameter of mycelium ([1]; 10 ppm) [m/m] | Diameter of mycelium ([1]; 50 ppm) [m/m] | Diameter of mycelium ([1]; 250 ppm) [m/m] | MIC [1] [µg/mL] | Disease control [2, 6] [%] | Disease severity [2, 6] [%] | Disease control [3, 7] [%] | Disease severity [3, 7] [%] | Phytotoxicity ([4]; 100 ppm) | Diameter of mycelium ([1]; 2 ppm) [m/m] | further results |
| --- | --- | --- | --- | --- | --- | --- | --- | --- | --- | --- | --- |
| CCc1ccccc1C=C1CC(C)OC1=O (stereo not drawn) [Compound 14] | 0 | 0 | 0 | ~2 (≈ 9.25 µM) | 100 | 0 | 100 | 0 | no |  | Diameter of mycelium (symbol) ([1]; 2 ppm): ± |
| C=C1CCOC1=O [Control (i), reference compound] |  |  |  |  |  |  |  |  |  |  | Disease control [3, 8]: 0%; Disease severity [3, 8]: 100%; Phytotoxicity ([4]; 500 ppm): no |
| CC1(C)CC(=Cc2ccccc2Cl)C(=O)O1 [Compound 11] | 0 | 0 | 0 | ~2 (≈ 8.45 µM) |  |  | 99 | 1.3 | no |  | Diameter of mycelium (symbol) ([1]; 2 ppm): ± |
| CCC1CC(=Cc2ccccc2Cl)C(=O)O1 (stereo not drawn) [Compound 9, α-(o-chlorobenzylidene)-γ-ethyl-γ-butyrolactone] | 0 | 0 | 0 | ~2 (≈ 8.45 µM) | 99 | 1.3 | 99 | 1.3 | no |  | Diameter of mycelium (symbol) ([1]; 2 ppm): ± |
| CC1CC(=Cc2c(F)cccc2Cl)C(=O)O1 (stereo not drawn) [Compound 3, α-(2-chloro-6-fluorobenzylidene)-γ-valerolactone] | 0 | 0 | 0 | < 2 | 100 | 0 | 100 | 0 | no | 0 |  |
| Cc1ccccc1C=C1CC(C)OC1=O (stereo not drawn) [Compound 5] | 0 | 0 | 0 | ~2 (≈ 9.89 µM) | 100 | 0 | 99 | 1.3 | no |  | Diameter of mycelium (symbol) ([1]; 2 ppm): ± |
| CC1CC(=Cc2c(Cl)cccc2Cl)C(=O)O1 (stereo not drawn) [Compound 8] | 0 | 0 | 0 | < 2 |  |  | 100 | 0 | no | 0 |  |
| CC1CC(=Cc2ccccc2Br)C(=O)O1 (stereo not drawn) [Compound 7] | 0 | 0 | 0 | < 2 | 100 | 0 | 100 | 0 | no | 0 |  |
| COc1ccccc1C=C1CCOC1=O [Control (iv), reference compound] | 48.5 | 31.5 |  | ~250 (≈ 1220 µM) |  |  |  |  |  | 63.0 | Diameter of mycelium (symbol) ([1]; 250 ppm): ±; Disease control [2, 9]: 0%; Disease severity [2, 9]: 100.0%; Phytotoxicity ([5]; curative test, 500 ppm): no; Disease control [3, 8]: 2%; Disease severity [3, 8]: 97.5%; Phytotoxicity ([4]; 500 ppm): no |
| CC(C)(C)C1CC(=Cc2ccccc2Cl)C(=O)O1 (stereo not drawn) [Compound 10] | 0 | 0 | 0 | ~2 (≈ 7.55 µM) |  |  | 99 | 1.3 | no |  | Diameter of mycelium (symbol) ([1]; 2 ppm): ± |
| CCOP(=O)(Sc1ccccc1)Sc1ccccc1 [Commercial fungicide C, O-ethyl-S,S-diphenyl-phosphorodithiolate, reference compound] |  |  |  |  |  |  |  |  |  |  | Disease control ([2]; in vivo): 92%; Disease severity ([2]; in vivo): 7.5%; Phytotoxicity ([5]; in vivo): no |
| O=C1OCCC1=Cc1ccccc1O [Control (iii), reference compound] | 55.0 | 40.0 | 11.0 | > 250 |  |  |  |  |  | 65.0 | Disease control [2, 9]: 0%; Disease severity [2, 9]: 97.5%; Disease control [3, 8]: 10%; Disease severity [3, 8]: 90.0%; Phytotoxicity ([4]; 500 ppm): no |
| CC(C)OP(=O)(OC(C)C)SCc1ccccc1 [Commercial fungicide A, 0,0-diisopropyl-S-benzylphosphorothioate, reference compound] |  |  |  |  |  |  | 92 | 7.5 | no |  |  |
| CC1CC(=Cc2ccccc2C(C)C)C(=O)O1 (stereo not drawn) [Compound 13] | 0 | 0 | 0 | ~2 (≈ 8.68 µM) | 99 | 1.3 | 100 | 0 | no |  | Diameter of mycelium (symbol) ([1]; 2 ppm): ± |
| O=C1OCCC1=Cc1c(Cl)cccc1Cl [Compound 2, α-(2,6-dichlorobenzylidene)-γ-butyrolactone] | 0 | 0 | 0 | < 2 |  |  | 100 | 0 | no | 0 |  |
| Cc1ccccc1C=C1CCOC1=O [Compound 1] | 0 | 0 | 0 | < 2 | 99 | 1.3 | 100 | 0 | no | 0 | Phytotoxicity ([5]; curative test, 200 ppm): no |
| C[C@H]1O[C@H](OC2[C@@H](O)[C@@H](O)C(O)[C@H](O)[C@H]2O)[C@@H](N)C[C@@H]1N=C(N)C(=O)O.Cl (stereo partly drawn) [Commercial fungicide B, Kasugamycin hydrochloride, reference compound] |  |  |  |  |  |  |  |  |  |  | Disease control [2, 10]: 82%; Disease severity [2, 10]: 17.5% |
| Cc1cccc(C)c1C=C1CCOC1=O [Compound 4] | 0 | 0 | 0 | < 2 |  |  | 99 | 1.3 | no | 0 |  |
| O=C1OCCC1=Cc1ccccc1 [Control (ii), reference compound] | 49.0 | 35.5 |  | ~250 (≈ 1440 µM) |  |  |  |  |  | 68.5 | Diameter of mycelium (symbol) ([1]; 250 ppm): ±; Disease control [2, 9]: 0%; Disease severity [2, 9]: 97.5%; Disease control [3, 8]: 7%; Disease severity [3, 8]: 93.8%; Phytotoxicity ([4]; 500 ppm): no |
| CC1CC(=Cc2ccccc2Cl)C(=O)O1 (stereo not drawn) [Compound 6, α-(o-chlorobenzylidene)-γ-valerolactone] | 0 | 0 | 0 | < 2 | 100 | 0 | 100 | 0 | no | 0 |  |
| O=C1OCCC1=Cc1ccc([N+](=O)[O-])cc1 [Control (v), reference compound] | 58.5 | 43.0 | 30.5 | > 250 |  |  |  |  |  | 69.5 | Disease control [3, 8]: 0%; Disease severity [3, 8]: 100.0%; Phytotoxicity ([4]; 500 ppm): no |
| O=C1OCCC1=Cc1ccc(Cl)cc1 [Control (vi), reference compound] | 51.5 | 34.5 | 3.0 | 250 (≈ 1200 µM) |  |  |  |  |  | 66.0 | Disease control [2, 9]: 0%; Disease severity [2, 9]: 100.0%; Disease control [3, 8]: 0%; Disease severity [3, 8]: 100.0%; Phytotoxicity ([4]; 500 ppm): no |
| Cc1ccccc1C=C1CC(C)(C)OC1=O [Compound 12, α-(o-methylbenzylidene)-γ-dimethyl-γ-butyrolactone] | 0 | 0 | 0 | 2 (≈ 9.25 µM) |  |  | 97 | 2.5 | no | 2.0 |  |
| CC1CC(=Cc2ccccc2)C(=O)O1 (stereo not drawn) [Control (ix), reference compound] |  |  |  |  |  |  |  |  |  |  | Disease control [3, 8]: 10%; Disease severity [3, 8]: 90.0%; Phytotoxicity ([4]; 500 ppm): no |
